IC50, MIC99 and hemolysis data for ten compounds are collected here from ChEMBL document CHEMBL5096228, “Targeting Vancomycin-Resistant Enterococci (VRE) Infections and Van Operon-Mediated Drug Resistance Using Dimeric Cholic Acid-Peptide Conjugates” (J Med Chem, 2022).

Converted amounts (≈) assume the structure as drawn. Positions of bridges follow the written chain, without caps; N, C: chain ends. Non-standard residues stand in square brackets, D forms with d. Residues, ends and D or L forms follow the SMILES beside them. *: point of attachment. X1 = CC[C@H](C)CCCCC(=O)*; Dab = NCC[C@H](N)C(=O)O Bounds are passed on as bounds.

A short description of data set [1]: Cytotoxicity against mouse LLC cells assessed as reduction in cell viability. The format is toxicity, cell-based. The conditions noted are these: LLC (3LL) cells.
For data set [2], the system named is Staphylococcus aureus. The experiment in a line: Antimicrobial activity against Staphylococcus aureus ATCC 25923 assessed as growth inhibition after 14 to 16 hrs by CLSI based broth dilution method. The conditions noted are these: time 14-16 hrs. It counts as functional.
Data set [3] can be described thus: Hemolytic activity in human RBC at 50 ug/ml. The format is toxicity, cell-based, Erythrocyte. The conditions noted are these: red blood cells (erythrocytes), at 50 µg/mL, read-out: Activity.
The test system of data set [4] is Enterococcus faecium. Put plainly: Antimicrobial activity against Enterococcus faecium assessed as growth inhibition after 14 to 16 hrs by CLSI based broth dilution method. The format is functional. The conditions noted are these: time 14-16 hrs.
Data set [5] deals with Staphylococcus aureus. The experiment in a line: Antimicrobial activity against methicillin-resistant Staphylococcus aureus ATCC 33591 assessed as growth inhibition after 14 to 16 hrs by CLSI based broth dilution method. It counts as functional. The conditions noted are these: time 14-16 hrs.
Data set [6] has as its system Enterococcus faecium. The experiment in a line: Antimicrobial activity against Vancomycin-resistant Enterococcus faecium ATCC 51559 assessed as growth inhibition after 14 to 16 hrs by CLSI based broth dilution method. The conditions noted are these: time 14-16 hrs. The format is functional.

On to `CC(C)C(N)C(=O)NCC(=O)O[C@@H]1CC[C@@]2(C)[C@@H](C1)C[C@@H](OC(=O)CNC(=O)C(N)C(C)C)[C@@H]1[C@@H]2C[C@H](OC(=O)CNC(=O)C(N)C(C)C)[C@]2(C)[C@@H]([C@H](C)CCC(=O)NCc3cn(CCCCn4cc(CNC(=O)CC[C@@H](C)[C@H]5CC[C@H]6[C@@H]7[C@H](OC(=O)CNC(=O)C(N)C(C)C)C[C@@H]8C[C@H](OC(=O)CNC(=O)C(N)C(C)C)CC[C@]8(C)[C@H]7C[C@H](OC(=O)CNC(=O)C(N)C(C)C)[C@]56C)nn4)nn3)CC[C@@H]12.Cl.Cl.Cl.Cl.Cl.Cl` (some centres not stated), for which the IC50 in data set [1] worked out at 52 µg/mL. In addition, the MIC99 in data set [2] is 128 µg/mL; in data set [4], 8 µg/mL; in data set [5], 32 µg/mL; in data set [6] it was 4 µg/mL. Moreover, the hemolysis at 50 ug/ml in data set [3] was determined as 50%.

In the case of `C[C@H](CCC(=O)NCc1cn(CCCn2cc(CNC(=O)CC[C@@H](C)[C@H]3CC[C@H]4[C@@H]5[C@H](OC(=O)CN)C[C@@H]6C[C@H](OC(=O)CN)CC[C@]6(C)[C@H]5C[C@H](OC(=O)CN)[C@]34C)nn2)nn1)[C@H]1CC[C@H]2[C@@H]3[C@H](OC(=O)CN)C[C@@H]4C[C@H](OC(=O)CN)CC[C@]4(C)[C@H]3C[C@H](OC(=O)CN)[C@]12C.Cl.Cl.Cl.Cl.Cl.Cl`, in data set [1], the IC50 is 131 µg/mL. The MIC99 in data set [2] stood at 128 µg/mL; in data set [4] it was 32 µg/mL; in data set [5], 32 µg/mL; in data set [6] it was 16 µg/mL. Besides, in data set [3], the hemolysis at 50 ug/ml was determined as 9%.

For `NC[C@@H]1O[C@H](O[C@H]2[C@@H](O)[C@H](O[C@@H]3[C@@H](O)[C@H](N)C[C@H](N)[C@H]3O[C@H]3O[C@H](CN)[C@@H](O)[C@H](O)[C@H]3N)O[C@@H]2CO)[C@H](N)[C@@H](O)[C@@H]1O` [FRAMYCETIN], in data set [1], the IC50 was greater than 1 mM. In addition, the MIC99 in data set [2] is 16 µg/mL (≈ 26 µM); in data set [4] it was 16 µg/mL (≈ 26 µM); in data set [5] it was greater than 128 µg/mL; in data set [6], greater than 128 µg/mL.

With `CC(C)C(N)C(=O)NCC(=O)O[C@@H]1CC[C@@]2(C)[C@@H](C1)C[C@@H](OC(=O)CNC(=O)C(N)C(C)C)[C@@H]1[C@@H]2C[C@H](OC(=O)CNC(=O)C(N)C(C)C)[C@]2(C)[C@@H]([C@H](C)CCC(=O)NCc3cn(CCCCCCn4cc(CNC(=O)CC[C@@H](C)[C@H]5CC[C@H]6[C@@H]7[C@H](OC(=O)CNC(=O)C(N)C(C)C)C[C@@H]8C[C@H](OC(=O)CNC(=O)C(N)C(C)C)CC[C@]8(C)[C@H]7C[C@H](OC(=O)CNC(=O)C(N)C(C)C)[C@]56C)nn4)nn3)CC[C@@H]12.Cl.Cl.Cl.Cl.Cl.Cl` (some centres not stated), the IC50 in data set [1] stood at 69 µg/mL. The MIC99 turned out to be 128 µg/mL in data set [2], 16 µg/mL in data set [4], 32 µg/mL in data set [5] and 4 µg/mL in data set [6]. The hemolysis at 50 ug/ml in data set [3] turned out to be 57%.

Regarding `CC[C@H](C)CCCCC(=O)N[C@@H](CCN)C(=O)N[C@H](C(=O)N[C@@H](CCN)C(=O)N[C@H]1CCNC(=O)[C@H]([C@@H](C)O)NC(=O)[C@H](CCN)NC(=O)[C@H](CCN)NC(=O)[C@H](CC(C)C)NC(=O)[C@@H](Cc2ccccc2)NC(=O)[C@H](CCN)NC1=O)[C@@H](C)O` (X1-[Dab]T[Dab][Dab][Dab][dF]L[Dab][Dab]T; lactam 4-C), the MIC99 in data set [2] is 128 µg/mL (≈ 106 µM); in data set [4], greater than 128 µg/mL; in data set [5], 32 µg/mL (≈ 26.6 µM); in data set [6], greater than 128 µg/mL.

As for `CC(C)C(N)C(=O)NCC(=O)O[C@@H]1CC[C@@]2(C)[C@@H](C1)C[C@@H](OC(=O)CNC(=O)C(N)C(C)C)[C@@H]1[C@@H]2C[C@H](OC(=O)CNC(=O)C(N)C(C)C)[C@]2(C)[C@@H]([C@H](C)CCC(=O)OCc3ccccc3)CC[C@@H]12` (some centres not stated), the concentration for half-maximal inhibition (IC50) in data set [1] was found to be 40 µg/mL. Moreover, the MIC99 is 16 µg/mL (≈ 16.5 µM) in data set [2], 8 µg/mL (≈ 8.27 µM) in data set [4], 4 µg/mL (≈ 4.14 µM) in data set [5] and 2 µg/mL (≈ 2.07 µM) in data set [6]. Moreover, in data set [3], the hemolysis at 50 ug/ml was found to be 95%.

As for `C[C@H](CCC(=O)NCc1cn(CCCCCn2cc(CNC(=O)CC[C@@H](C)[C@H]3CC[C@H]4[C@@H]5[C@H](OC(=O)CN)C[C@@H]6C[C@H](OC(=O)CN)CC[C@]6(C)[C@H]5C[C@H](OC(=O)CN)[C@]34C)nn2)nn1)[C@H]1CC[C@H]2[C@@H]3[C@H](OC(=O)CN)C[C@@H]4C[C@H](OC(=O)CN)CC[C@]4(C)[C@H]3C[C@H](OC(=O)CN)[C@]12C.Cl.Cl.Cl.Cl.Cl.Cl`, in data set [1], the IC50 was found to be 153 µg/mL. Moreover, the MIC99 in data set [2] stood at 128 µg/mL; in data set [4] it was 32 µg/mL; in data set [5] it was 64 µg/mL; in data set [6], 16 µg/mL. Moreover, the hemolysis at 50 ug/ml in data set [3] was found to be 10%.

`C[C@H](CCC(=O)NCc1cn(CCCCn2cc(CNC(=O)CC[C@@H](C)[C@H]3CC[C@H]4[C@@H]5[C@H](OC(=O)CN)C[C@@H]6C[C@H](OC(=O)CN)CC[C@]6(C)[C@H]5C[C@H](OC(=O)CN)[C@]34C)nn2)nn1)[C@H]1CC[C@H]2[C@@H]3[C@H](OC(=O)CN)C[C@@H]4C[C@H](OC(=O)CN)CC[C@]4(C)[C@H]3C[C@H](OC(=O)CN)[C@]12C.Cl.Cl.Cl.Cl.Cl.Cl`: the IC50 in data set [1] is 211 µg/mL. Also, the MIC99 is 128 µg/mL in data set [2], 64 µg/mL in data set [4], 64 µg/mL in data set [5] and 32 µg/mL in data set [6]. Moreover, the hemolysis at 50 ug/ml in data set [3] turned out to be 2%.

As for `C[C@H](CCC(=O)NCc1cn(CCCCCCn2cc(CNC(=O)CC[C@@H](C)[C@H]3CC[C@H]4[C@@H]5[C@H](OC(=O)CN)C[C@@H]6C[C@H](OC(=O)CN)CC[C@]6(C)[C@H]5C[C@H](OC(=O)CN)[C@]34C)nn2)nn1)[C@H]1CC[C@H]2[C@@H]3[C@H](OC(=O)CN)C[C@@H]4C[C@H](OC(=O)CN)CC[C@]4(C)[C@H]3C[C@H](OC(=O)CN)[C@]12C.Cl.Cl.Cl.Cl.Cl.Cl`, the IC50 in data set [1] is 66 µg/mL. Besides, the MIC99 in data set [2] was 128 µg/mL; in data set [4], 16 µg/mL; in data set [5], 32 µg/mL; in data set [6] it was 8 µg/mL. Besides, the hemolysis at 50 ug/ml in data set [3] was determined as 58%.

Consider `CC(C)C(N)C(=O)NCC(=O)O[C@@H]1CC[C@@]2(C)[C@@H](C1)C[C@@H](OC(=O)CNC(=O)C(N)C(C)C)[C@@H]1[C@@H]2C[C@H](OC(=O)CNC(=O)C(N)C(C)C)[C@]2(C)[C@@H]([C@H](C)CCC(=O)NCc3cn(CCCCCn4cc(CNC(=O)CC[C@@H](C)[C@H]5CC[C@H]6[C@@H]7[C@H](OC(=O)CNC(=O)C(N)C(C)C)C[C@@H]8C[C@H](OC(=O)CNC(=O)C(N)C(C)C)CC[C@]8(C)[C@H]7C[C@H](OC(=O)CNC(=O)C(N)C(C)C)[C@]56C)nn4)nn3)CC[C@@H]12.Cl.Cl.Cl.Cl.Cl.Cl` (some centres not stated), for which the IC50 in data set [1] stood at 96 µg/mL. Moreover, the MIC99 is 128 µg/mL in data set [2], 16 µg/mL in data set [4], 32 µg/mL in data set [5] and 4 µg/mL in data set [6]. Further, the hemolysis at 50 ug/ml in data set [3] was 36%.
